According to PMC4554999 (Bioorganic & medicinal chemistry, 2015):
pKi: −log10 of the molar value. Where two headings read alike, the source gives them in different places.

How the values were obtained:
[1] = system: nicotine-induced antinociception; experiment: Antagonism of nicotine-induced antinociception, tail-flick test; format: in vivo, mouse; conditions: mice
[2] = target: rat α3β4-nAChR (Rattus norvegicus, UniProt P04757+P12392); experiment: Electrophysiology; format: cell-based; conditions: 100 μM compound; rat receptor in Xenopus oocytes
[3] = system: mice; conditions: ref [5]; cited from earlier work
[4] = system: mice; conditions: agonist antinociception, ref [5]; cited from earlier work
[5] = system: mice; conditions: Table 1, head line above prints AD50 (μg/kg), ref [5]; cited from earlier work
[6] = system: mice; conditions: agonist antinociception, ref [5]; cited from earlier work; remark: listed apart in the source
[7] = target: T1, rat α7-nAChR (Rattus norvegicus, UniProt Q05941); format: cell-based
[8] = target: α4β2*-nAChRs (Rattus norvegicus, UniProt P09483+P12390); experiment: biochemical; format: binding
[9] = target: T1, rat α7-nAChR; experiment: cell-based; conditions: read-out: antagonist activity at α7-nAChRs, % inhibition

T1 sequence (Q05941 23-502): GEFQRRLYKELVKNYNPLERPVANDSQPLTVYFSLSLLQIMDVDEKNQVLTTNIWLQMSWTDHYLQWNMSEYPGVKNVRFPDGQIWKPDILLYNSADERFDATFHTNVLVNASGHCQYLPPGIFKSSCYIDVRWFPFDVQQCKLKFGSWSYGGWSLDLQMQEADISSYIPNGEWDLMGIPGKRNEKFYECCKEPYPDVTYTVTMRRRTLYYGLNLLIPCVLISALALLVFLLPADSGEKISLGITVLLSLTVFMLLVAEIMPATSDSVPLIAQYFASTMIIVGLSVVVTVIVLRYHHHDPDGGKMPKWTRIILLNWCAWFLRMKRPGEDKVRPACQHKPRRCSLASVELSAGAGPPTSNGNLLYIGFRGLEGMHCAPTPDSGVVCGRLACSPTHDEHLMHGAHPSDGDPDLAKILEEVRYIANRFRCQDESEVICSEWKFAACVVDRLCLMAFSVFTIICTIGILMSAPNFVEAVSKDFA
rat α3β4-nAChR, sequence (P04757 26-499): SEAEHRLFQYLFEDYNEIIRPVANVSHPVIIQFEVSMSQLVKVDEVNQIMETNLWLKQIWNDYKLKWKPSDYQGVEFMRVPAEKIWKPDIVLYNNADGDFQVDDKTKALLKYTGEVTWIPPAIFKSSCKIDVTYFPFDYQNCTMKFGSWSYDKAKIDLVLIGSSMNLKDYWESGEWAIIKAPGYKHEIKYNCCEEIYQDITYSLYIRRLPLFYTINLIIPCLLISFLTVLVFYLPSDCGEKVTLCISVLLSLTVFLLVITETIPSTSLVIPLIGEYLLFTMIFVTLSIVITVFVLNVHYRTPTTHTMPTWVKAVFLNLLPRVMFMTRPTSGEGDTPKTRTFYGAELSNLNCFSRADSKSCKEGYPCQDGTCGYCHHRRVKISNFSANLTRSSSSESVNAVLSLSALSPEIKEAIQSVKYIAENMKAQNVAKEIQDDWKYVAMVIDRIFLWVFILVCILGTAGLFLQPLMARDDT
rat α3β4-nAChR, sequence (P12392 21-495): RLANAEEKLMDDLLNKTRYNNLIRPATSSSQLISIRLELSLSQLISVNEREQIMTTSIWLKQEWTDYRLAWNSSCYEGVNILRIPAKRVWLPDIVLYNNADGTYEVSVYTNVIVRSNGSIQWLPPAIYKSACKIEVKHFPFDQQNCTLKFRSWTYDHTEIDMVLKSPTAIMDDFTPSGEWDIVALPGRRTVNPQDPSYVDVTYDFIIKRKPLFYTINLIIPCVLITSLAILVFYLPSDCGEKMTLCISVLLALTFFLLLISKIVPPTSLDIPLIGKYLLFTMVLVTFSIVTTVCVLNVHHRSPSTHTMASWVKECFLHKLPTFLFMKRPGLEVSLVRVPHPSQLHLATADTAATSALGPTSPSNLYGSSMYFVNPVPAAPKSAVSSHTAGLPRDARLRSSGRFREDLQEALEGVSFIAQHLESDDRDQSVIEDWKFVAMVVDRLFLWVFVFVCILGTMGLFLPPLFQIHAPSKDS
α4β2*-nAChRs, sequence (P09483 31-630): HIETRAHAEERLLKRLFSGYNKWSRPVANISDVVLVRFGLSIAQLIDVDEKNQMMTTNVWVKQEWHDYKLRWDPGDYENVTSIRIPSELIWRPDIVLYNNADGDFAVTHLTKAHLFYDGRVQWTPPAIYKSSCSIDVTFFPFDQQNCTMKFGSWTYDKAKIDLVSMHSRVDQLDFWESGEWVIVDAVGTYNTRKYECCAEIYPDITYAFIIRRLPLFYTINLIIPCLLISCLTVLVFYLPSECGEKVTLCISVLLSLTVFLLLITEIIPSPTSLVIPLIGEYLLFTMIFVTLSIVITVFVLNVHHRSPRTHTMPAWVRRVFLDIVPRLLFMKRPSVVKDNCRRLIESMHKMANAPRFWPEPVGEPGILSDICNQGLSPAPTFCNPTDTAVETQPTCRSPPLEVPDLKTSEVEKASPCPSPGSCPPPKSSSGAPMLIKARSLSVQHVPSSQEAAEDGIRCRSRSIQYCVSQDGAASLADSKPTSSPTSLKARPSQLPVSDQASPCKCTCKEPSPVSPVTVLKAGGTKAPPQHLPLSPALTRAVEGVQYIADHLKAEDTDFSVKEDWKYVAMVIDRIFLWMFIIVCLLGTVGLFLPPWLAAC
α4β2*-nAChRs, sequence (P12390 25-500): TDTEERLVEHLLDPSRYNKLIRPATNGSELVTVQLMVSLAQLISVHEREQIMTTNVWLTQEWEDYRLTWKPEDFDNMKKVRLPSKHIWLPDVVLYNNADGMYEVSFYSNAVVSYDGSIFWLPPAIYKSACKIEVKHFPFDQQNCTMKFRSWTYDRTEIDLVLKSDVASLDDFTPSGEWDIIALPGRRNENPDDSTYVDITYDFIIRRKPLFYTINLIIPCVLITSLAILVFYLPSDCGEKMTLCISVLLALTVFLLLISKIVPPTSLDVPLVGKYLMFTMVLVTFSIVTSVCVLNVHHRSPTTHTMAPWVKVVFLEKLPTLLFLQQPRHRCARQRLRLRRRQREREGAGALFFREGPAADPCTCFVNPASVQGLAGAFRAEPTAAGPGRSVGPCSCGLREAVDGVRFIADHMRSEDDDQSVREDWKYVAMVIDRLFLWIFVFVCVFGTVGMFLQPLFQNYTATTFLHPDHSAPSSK

With `Clc1ccc(-c2cncc([C@H]3C[C@H]4CC[C@H]3N4)c2)cn1` [Compound 6c, 2-exo-[3′-(2″-Chloropyridin-5″-yl)-5′-pyridnyl]-7-azabicyclo[2.2.1]heptane] the “AD50 Tail-Flick” value [1] was 0.5 (0.05–4.7) μg/kg.

For `Nc1cc(-c2cncc([C@H]3C[C@H]4CC[C@H]3N4)c2)ccn1` [Compound 5d, 2-exo-[3′-(2-Aminopyridin-4-yl)-5′-pyridnyl]-7-azabicyclo[2.2.1]heptane], the “AD50 Tail-Flick” value [1] was 1 (0.13–1.4) μg/kg and the “Agonist Activity (% of max ACh at 100 μM) α3β4” value [2] was “little or no agonist activity”.

With `Nc1ccc(-c2cncc([C@H]3C[C@H]4CC[C@H]3N4)c2)cn1` [Compound 6d, 2-exo-[3′-(2″-Aminopyridin-5″-yl)-5′-pyridnyl]-7-azabicyclo[2.2.1]heptane] the “AD50 Tail-Flick” value [1] was 1.5 (0.5–4.1) μg/kg and the “Agonist Activity (% of max ACh at 100 μM) α3β4” value [2] was “little or no agonist activity”.

For `CN1CCC[C@H]1c1cccnc1` [nicotine], the “ED50 Hypothermia” value [3] is given as 1.0 (0.6–2.1) mg/kg, the “ED50 Tail-Flick” value [4] is given as 1.3 (0.5–1.8) mg/kg and the “ED50 Spontaneous Activity” value [5] is given as 0.5 (0.15–0.78) μg/kg. The “ED50 Hot-Plate” value [6] was 0.65 (0.25–0.85) mg/kg.

In the case of `Clc1cc(-c2cncc([C@H]3C[C@H]4CC[C@H]3N4)c2)ccn1` [Compound 5c, 2-exo-[3′-(2-Chloropyridin-4-yl)-5′-pyridnyl]-7-azabicyclo[2.2.1]heptane], the “AD50 Tail-Flick” value [1] was 110 (20–645) μg/kg.

In the case of `Fc1ccc(-c2cncc([C@H]3C[C@H]4CC[C@H]3N4)c2)cn1` [Compound 6b, 2-exo-[3′-(2″-Fluoropyridin-5″-yl)-5′-pyridnyl]-7-azabicyclo[2.2.1]heptane], the “Agonist Activity (% of max ACh at 100 μM) α7” value [7] was “little or no agonist activity”.

For `c1cc(-c2cncc([C@H]3C[C@H]4CC[C@H]3N4)c2)ccn1` [Compound 5a, 2-exo-[3′-(Pyridin-4-yl)-5′-pyridnyl]-7-azabicyclo[2.2.1]heptane], the “AD50 Tail-Flick” value [1] was 39 (4–63) μg/kg.

For `c1cncc(-c2cncc([C@H]3C[C@H]4CC[C@H]3N4)c2)c1` [Compound 6a, 2-exo-[3′-(Pyridin-3″-yl)-5′-pyridnyl]-7-azabicyclo[2.2.1]heptane], the pKi [8] was 9.92 and the “AD50 Tail-Flick” value [1] was 0.68 (0.11–4) μg/kg.

In the case of `COc1cc(-c2cncc([C@H]3C[C@H]4CC[C@H]3N4)c2)ccn1` [Compound 5e, 2-exo-[3′-(2-Methoxypyridin-4-yl)-5′-pyridnyl]-7-azabicyclo[2.2.1]heptane], the “AD50 Tail-Flick” value [1] was 0.3 (0.04–20) μg/kg.

In the case of `COc1ccc(-c2cncc([C@H]3C[C@H]4CC[C@H]3N4)c2)cn1` [Compound 6e, 2-exo-[3′-(2″-Methoxypyridin-5″-yl)-5′-pyridnyl]-7-azabicyclo[2.2.1]heptane], the inhibition at 100 µM [9] was > 80%, the “Agonist Activity (% of max ACh at 100 μM) α7” value ([7]; 100 μM compound, rat receptor in Xenopus oocytes) was “little or no agonist activity” and the “AD50 Tail-Flick” value [1] was 0.5 (0.05–4.7) μg/kg.
